Results: US20210363110A1, “4-METHYLDIHYDROPYRIMIDINONE COMPOUNDS AND PHARMACEUTICAL USE THEREOF” (Japan Tobacco Inc., priority 2018, published 2021)
Values after ≈ are worked out from the molar mass of the structure shown. Read-outs that look alike come from different tables or passages of the source.

Key:
mouse RORγ = biological target: T1, mouse RORγ (Mus musculus, UniProt P51450); assay: Reporter gene assay for inhibitory effect against RORγ transcriptional activity (GAL4-mRORγ LBD, luciferase, CHO cells); assay type: cell-based; settings: pFA/mRORγ + pG5-Luc, 2 days incubation
T1 construct: from Ile251 to Lys516 for mouse RORγ; expressed in transfected cells; host or cells: CHO cells (transient co-transfection with pG5-Luc)
T1 sequence (P51450 251-516): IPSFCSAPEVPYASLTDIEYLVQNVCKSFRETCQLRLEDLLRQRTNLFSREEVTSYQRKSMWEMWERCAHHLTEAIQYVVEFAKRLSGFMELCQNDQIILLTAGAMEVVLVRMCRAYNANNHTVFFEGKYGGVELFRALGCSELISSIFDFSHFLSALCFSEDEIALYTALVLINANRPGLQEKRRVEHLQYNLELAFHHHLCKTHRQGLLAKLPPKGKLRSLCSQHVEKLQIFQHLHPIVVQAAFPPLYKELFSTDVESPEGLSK
Experimental: Inhibitory effect against RORγ transcriptional activity was assessed by reporter gene assay for test compounds.
cDNAs encoding human and mouse RORγ ligand binding domains (LBD) were obtained based on the sequences of human RORγ (Genbank registered number NM_005060.3) and mouse RORγ (Genbank registered number NM_011281.2) (LBD sequences: from Ser253 to Lys518 for human RORγ; from Ile251 to Lys516 for mouse RORγ).
LBD cDNAs of human and mouse RORγ were inserted into pFA-CMV vector (Agilent Technologies, Inc.), which expresses GAL4-DNA binding domain fusion protein. The resulting plasmids are hereinafter referred to as pFA/hRORγ plasmid and pFA/mRORγ plasmid, respectively. […]
Cell viability was tested by luminescence method with CellTiter-Glo (Promega). […] Ten minutes after the addition, luminescence was measured for each well with a microplate reader. The luminescence count in the cells treated with 0.2% DMSO alone was defined as 100%, and the cell viability after treatment with the test compound was calculated as a percentage (%-of-control) based on the value of 0.2% DMSO alone. When the cell viability was 70% or less, a test compound was assessed to have cytotoxicity.
RORγ transcriptional activity was detected as the intracellular luciferase activity using SteadyLite HTS Reporter Gene Assay System (Perkin Elmer). […]

[1] = Metabolic stability in liver microsomes, dog; assay type: in vitro ADME; settings: residual ratio of unreacted substance, 0.2 mg/mL microsomes, NADPH generating system
Experimental: A test solution was prepared by diluting 10 mM DMSO solution of a test substance with acetonitrile by 100 times.
Human and animal liver microsomes (SEKISUI XENOTECH; Human (H2610), Rat (R1000), Mouse (M1000), Monkey (P2000), Dog (D1000)) were adjusted with potassium phosphate buffer (pH 7.4) to 0.2 mg/mL in the reaction system. Then, 1% of the solution of a test substance prepared was added to the reaction system. Thereto was added an NADPH generating system (prepared according to the method of Non Patent Literature 28), and the metabolic reaction was initiated. At a designated time, 0.1% formic acid-acetonitrile/water (3:1) was added thereto, and the reaction was terminated.
The sample after termination of the reaction was separated by centrifugation (1400 g, 20 min.), and then the supernatant was measured by LC/MS (UPLC-SQD (waters)) to calculate a residual ratio of unreacted substances.

[2] = Measurement of solubility (JP1, JP2, FaSSIF, FeSSIF); assay type: physicochemical; settings: thermodynamic from solid, shaken 4 hours
Experimental: A 10 mM DMSO solution (10 μL) of test substance was added to a 96-well plate, and the mixture was concentrated and dried with a centrifugal evaporator (Genevac HT-4X). 200 μL of each solvent (JP1, JP2, FaSSIF, FeSSIF) (see Non Patent Literatures 29 and 30) was added to the well after evaporation. The mixture was shaken at room temperature at 2500 rpm for 4 hours. Then, the mixture was filtered in two parts with MultiScreen PCF filter (MERCK Millipore; MSSLBPC) to give samples (50 and 100 μL). 40 μL was collected from the sample obtained in the second filtration, and thereto was added acetonitrile (300 μL). After centrifugation (4000 g, 5 min.) of the mixture, a part of the supernatant was measured by LC-UV/MS (UPLC-Premier (waters)).

[3] = pH 1.2, simulated gastric fluid, JP1, room temperature, read-out: Solubility JP1
[4] = pH 6.8, aqueous buffer, JP2, room temperature, read-out: Solubility JP2
[5] = FaSSIF, room temperature, read-out: Solubility FaSSIF
[6] = FeSSIF, room temperature, read-out: Solubility FeSSIF

Row | EC50 (mouse RORγ) [nM] | Metabolic stability in liver microsomes at 60 min., Dog [1] [%] | solubility at 4 h [2, 3] [µM] | solubility at 4 h [2, 4] [µM] | solubility at 4 h [2, 5] [µM] | solubility at 4 h [2, 6] [µM] | SMILES
1 | 29 | 95 | < 0.7 | 447 (≈ 217 µg/mL) | 445 (≈ 216 µg/mL) | 463 (≈ 225 µg/mL) | CC[C@H](C)C1=CN(C23CC(C(=O)O)(C2)C3)C(=O)N[C@@]1(C)c1ccc([C@@H]2C[C@H]2C(C)(C)C)c(Cl)c1 [Compound (2), 3-{(S)-5-((S)-sec-Butyl)-4-[4-((1R,2R)-2-tert-butyl-cyclopropyl)-3-chloro-phenyl]-4-methyl-2-oxo-3,4-dihydro-2H-pyrimidin-1-yl}bicyclo[1.1.1]pentane-1-carboxylic acid]
2 | 23 | 98 | < 0.8 | 451 (≈ 212 µg/mL) | 470 (≈ 221 µg/mL) | ≥ 475 | CC(C)C1=CN(C23CC(C(=O)O)(C2)C3)C(=O)N[C@@]1(C)c1ccc([C@@H]2C[C@H]2C(C)(C)C)c(Cl)c1 [Compound (1), 3-{(S)-4-[4-((1R,2R)-2-tert-Butyl-cyclopropyl)-3-chloro-phenyl]-5-isopropyl-4-methyl-2-oxo-3,4-dihydro-2H-pyrimidin-1-yl}bicyclo[1.1.1]pentane-1-carboxylic acid]
